Experimental data reported in PMC6982741, “Design, Synthesis and Study of Nitrogen Monoxide Donors as Potent Hypolipidaemic and Anti-Inflammatory Agents” (Molecules, 2019).
Where two headings read alike, the source gives them in different places. Marks after values point to notes of the source that are not given here.

Assays:
[1] = system: carrageenan-induced rat paw oedema; assay: Carrageenan-induced rat paw oedema; assay type: in vivo, Wistar rats; conditions: 0.15 mmol/kg i.p., oedema after 3.5 h, vs carrageenan-only controls; for inhibition in vivo at 150 µmol/kg: Rattus norvegicus, ip, read-out: % Oedema Reduction
Description: The carrageenan-induced paw oedema is a well-known and widely used model of acute inflammation. The response to carrageenan inflammation may be divided into three phases. In the first phase (after 1.5 h), histamine and serotonin are released, the second phase (1.5–2.5 h after carrageenan administration) is mediated by kinins, whereas, in the third phase, more than two hours post administration, neutrophil infiltration, prostaglandin production and release of pro-inflammatory cytokines are involved. In this work, oedema was measured 3.5 h post injection.
κ-Carrageenan and lipoxygenase type I-B from soybean were purchased from Sigma (St. Louis, MO, U.S.A.).
The tested compounds (in water with a few drops of Tween 80) were given i.p. (0.15 mmol/kg) to rats, just after the i.d. injection of 0.1 mL of an aqueous carrageenan solution (1% w/v) in the hind paw of rats. The produced oedema, after 3.5 h, was estimated as paw weight increase.

[2] = system: hyperlipidaemic rats; assay: Triton WR1339 (tyloxapol) induced hyperlipidaemia in rats; assay type: in vivo, Wistar rats; conditions: tyloxapol 200 mg/kg i.p.; for inhibition in vivo at 150 µmol/kg / inhibition in vivo at 300 µmol/kg / inhibition in vivo at 500 µmol/kg: Rattus norvegicus, ip, 24 h; for inhibition in vivo at 300 µmol/kg: 300 μmol/kg i.p.; for inhibition in vivo at 500 µmol/kg: 500 μmol/kg i.p.
Description: The pleiotropic effects of statins, used as hypolipidaemic drugs, include antioxidant ability and direct increase of eNOS activity, in addition to inhibition of 3-hydroxy-3-methylglutaryl coenzyme A (HMG-CoA) reductase. […] The systemic administration of Triton-WR1339 (tyloxapol) to rats induces a biphasic elevation of plasma cholesterol, atherogenic VLDL cholesterol and LDL cholesterol, as well as triglyceride levels. […] Agents shown to be active in phase I are considered to interfere with cholesterol biosynthesis.
κ-Carrageenan and lipoxygenase type I-B from soybean were purchased from Sigma (St. Louis, MO, U.S.A.). For the in vivo experiments, Wistar rats (180–220 g, 3–4 months old) were kept in the Centre of the School of Veterinary Medicine (EL54 BIO42), Aristotelian University of Thessaloniki, which is registered by the official state veterinary authorities (presidential degree 56/2013, in harmonization with the European Directive 2010/63/EEC). The experimental protocols were approved by the Animal Ethics Committee of the Prefecture of Central Macedonia (no. 270079/2500).
Hyperlipidaemia was induced by the i.p. administration of Triton WR 1339 (200 mg/kg) to rats. […] Blood was taken from the aorta after 24 h, for the determination of plasma total cholesterol, LDL-cholesterol and triglyceride concentrations, using commercial kits.

[3] = In vitro nitrogen monoxide release (Griess reagent)
Description: Due to their poor aqueous solubility, compounds 1, 3-7 and 9 were dissolved in 7/3 (v/v) mixture of DMSO/water at various concentrations and incubated overnight at room temperature in the presence of cadmium. S-nitroso-N-acetylpenicillamine (SNAP) was dissolved either in DMSO/water 7/3 or in water and treated as above.
Aliquots were taken from each sample and added to an equal volume of N-naphthylaminoethylamine (0.2%) and sulfanilamide (2%) solution in 3 N hydrochloric acid (Griess reagent). Appropriate sodium nitrite solutions in the same DMSO/water mixture were used for the construction of the standard curve and values were identical to those obtained with aqueous solutions. Nitric oxide release was estimated spectrophotometrically (540 nm).

[4] = target: T1, soybean lipoxygenase 1-B (Glycine max, UniProt P08170); assay: In vitro soybean lipoxygenase inhibition, linoleate as substrate; assay type: biochemical; conditions: sodium linoleate 100 μM; after 7 min of incubation; pH 9.0, 28 °C
T1 construct: purchased Sigma (St. Louis, MO, U.S.A.)
T1 sequence (P08170 1-839): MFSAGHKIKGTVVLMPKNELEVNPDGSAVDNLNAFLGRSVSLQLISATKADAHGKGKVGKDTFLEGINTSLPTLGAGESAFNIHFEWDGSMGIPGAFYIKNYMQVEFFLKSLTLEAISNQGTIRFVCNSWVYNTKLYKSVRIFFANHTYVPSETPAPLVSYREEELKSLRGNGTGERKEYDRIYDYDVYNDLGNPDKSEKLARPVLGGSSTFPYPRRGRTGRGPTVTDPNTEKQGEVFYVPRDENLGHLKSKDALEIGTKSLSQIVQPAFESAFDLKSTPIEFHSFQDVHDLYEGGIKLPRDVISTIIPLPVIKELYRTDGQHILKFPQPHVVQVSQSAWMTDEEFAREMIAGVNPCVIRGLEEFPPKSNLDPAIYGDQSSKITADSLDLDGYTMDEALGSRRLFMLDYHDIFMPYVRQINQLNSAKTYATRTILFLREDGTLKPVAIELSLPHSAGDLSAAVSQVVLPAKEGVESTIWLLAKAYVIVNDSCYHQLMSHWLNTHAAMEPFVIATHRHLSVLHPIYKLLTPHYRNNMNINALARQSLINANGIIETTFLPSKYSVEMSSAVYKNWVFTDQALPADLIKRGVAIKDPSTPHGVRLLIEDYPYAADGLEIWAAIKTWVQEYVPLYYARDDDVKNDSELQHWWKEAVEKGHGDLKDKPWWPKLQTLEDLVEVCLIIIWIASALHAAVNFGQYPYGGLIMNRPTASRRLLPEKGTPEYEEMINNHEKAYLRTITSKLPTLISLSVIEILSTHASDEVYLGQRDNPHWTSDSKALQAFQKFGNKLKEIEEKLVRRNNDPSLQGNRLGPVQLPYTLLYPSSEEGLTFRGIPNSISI
Description: The reaction mixture contained the examined compounds (in absolute ethanol, 1–300 μM), soybean lipoxygenase (in saline, 250 u/mL) and sodium linoleate (100 μM), in Tris–HCl buffer, pH 9.0. The reaction was monitored for 7 min at 28 °C, recording the absorbance at 234 nm. […]

[5] = Interaction with the stable radical DPPH; conditions: DPPH 200 μΜ, after 30 min
Description: (§1) The antioxidant activity of compounds was estimated by the inhibition of rat hepatic microsomal membrane lipid peroxidation, induced by Fe^+2/ascorbate, estimated as 2-thiobarbituric acid (TBA) reactive material, and by their interaction with the N-centred 1,1-diphenyl-2-picrylhydrazyl (DPPH) stable free radical. […] The percent interaction with DPPH and the IC50 values of compounds 7–9 on rat hepatic microsomal membrane lipid peroxidation, after 45 min of incubation is shown in Table 4.
Compounds (in absolute ethanol, final concentrations 25–200 μM) were added to an ethanolic solution of DPPH (final concentration 200 μM) at room temperature (22 ± 2 °C). Absorbance (517 nm) was recorded after 30 min.

[6] = system: rat hepatic microsomal membrane lipid peroxidation; assay: Fe2+/ascorbate induced lipid peroxidation, TBA reactive material; assay type: biochemical; conditions: after 45 min of incubation; read-out: Inhibition of Lipid Peroxidation IC50
Description: as §1
The peroxidation of heat-inactivated (90°, 90 s) rat liver microsomal fraction was induced by ascorbic acid (0.2 mM) and ferrous sulphate (10 μΜ). The studied compounds, in dimethylsulfoxide, were added at concentrations 1 μM–1 mM. Aliquots were taken from the incubation mixture (37 °C) for 45 min. Lipid peroxidation was assessed spectrophotometrically (535/600 nm) as 2-thiobarbituric acid reactive material. All compounds and solvents were found not to interfere with the assay.

[7] = 150 μmol/kg i.p., plasma after 24 h, read-out: % Reduction LDL-C (LDL cholesterol)
[8] = 150 μmol/kg i.p., plasma after 24 h, read-out: % Reduction TC (total cholesterol)
[9] = 150 μmol/kg i.p., plasma after 24 h, read-out: % Reduction TG (triglycerides)
[10] = compound 31.25 μM, DMSO/water 7/3, overnight, cadmium
[11] = compound 62.5 μM, DMSO/water 7/3, overnight, cadmium
[12] = compound 125 μM, DMSO/water 7/3, overnight, cadmium
[13] = compound 250 μM, DMSO/water 7/3, overnight, cadmium
[14] = compound 500 μM, DMSO/water 7/3, overnight, cadmium
[15] = read-out: % Reduction LDL-C (LDL cholesterol)
[16] = read-out: % Reduction TC (total cholesterol)
[17] = read-out: % Reduction TG (triglycerides)

Compound	inhibition in vivo at 150 µmol/kg [1] [%]	inhibition in vivo at 150 µmol/kg [2, 7] [%]	inhibition in vivo at 150 µmol/kg [2, 8] [%]	inhibition in vivo at 150 µmol/kg [2, 9] [%]	NO Release [3, 10] [μΜ]	NO Release [3, 11] [μΜ]	NO Release [3, 12] [μΜ]	NO Release [3, 13] [μΜ]	NO Release [3, 14] [μΜ]	IC50 [4] [µM]	also measured
CC(C)Cc1ccc(C(C)C(=O)OCCO[N+](=O)[O-])cc1 (racemic) [Compound 1, (±)-2-(Nitrooxy)ethyl 2-(4-isobutylphenyl)propanoate]	76	80	62.2	30.1	7	17	40	82	116	46	–
CC(C)Cc1ccc(C(C)C(=O)OCCc2ccc([N+](=O)[O-])cc2)cc1 (racemic) [Compound 2, (±)-4-Nitrophenethyl 2-(4-isobutylphenyl)propanoate]	53	–	–	–	–	–	–	–	–	24	–
CC(C(=O)OCCO[N+](=O)[O-])c1cccc(C(=O)c2ccccc2)c1 (racemic) [Compound 5, (±)-2-(Nitrooxy)ethyl 2-(3-benzoylphenyl)propanoate]	75	57.8	46.6	40.2	4	11	26	57	100	86	–
COc1ccc2cc(C(C)C(=O)OCCO[N+](=O)[O-])ccc2c1 (single isomer, unassigned; (+)) [Compound 4, (+)-2-(Nitrooxy)ethyl 2-(6-methoxynaphthalen-2-yl)propanoate]	70	84.6	80	38.9	2.5	7	17	37	73	> 300	% Oedema Reduction [1]: 70 ** %
O=C(/C=C/c1ccccc1)OCCO[N+](=O)[O-] [Compound 6, (E)-2-(Nitrooxy)ethyl cinnamate]	61	74.8	70.9	54.4	5	11	22	51	98	220	–
CC(C)Cc1ccc(C(C)C(=O)O)cc1 (stereo not shown) [Ibuprofen, reference compound]	36	–	–	–	–	–	–	–	–	–	inhibition in vivo at 300 µmol/kg [2, 15]: 41.6%; inhibition in vivo at 300 µmol/kg [2, 16]: 41%; inhibition in vivo at 300 µmol/kg [2, 17]: 38%
COc1ccc2c(c1)c(CC(=O)O)c(C)n2C(=O)c1ccc(Cl)cc1 [Indomethacin, reference compound]	42	–	–	–	–	–	–	–	–	–	–
COc1ccc2cc([C@H](C)C(=O)O)ccc2c1 [Naproxen, reference compound]	11	–	–	–	–	–	–	–	–	–	inhibition in vivo at 500 µmol/kg [2, 15]: 25.5%; inhibition in vivo at 500 µmol/kg [2, 16]: 53%; inhibition in vivo at 500 µmol/kg [2, 17]: 43.5%
CCC(C)(C)C(=O)O[C@H]1C[C@@H](C)C=C2C=C[C@H](C)[C@H](CC[C@@H]3C[C@@H](O)CC(=O)O3)[C@H]21 [Simvastatin, reference compound]	–	70	–	–	–	–	–	–	–	–	% Reduction TG (triglycerides) ([2]; 150 μmol/kg i.p., plasma after 24 h): no effect
Cc1c(C)c2c(c(C)c1O)CCC(C)(C(=O)O)O2 (stereo not shown) [Trolox, 6-hydroxy-2,5,7,8-tetramethylchroman-2-carboxylic acid, reference compound]	–	–	–	–	–	–	–	–	–	> 300	Percent Interaction with DPPH ([5]; compound 50 μΜ): 38%; Percent Interaction with DPPH ([5]; compound 100 μΜ): 90%; Percent Interaction with DPPH ([5]; compound 200 μΜ): 92%; IC50 [6]: 25 µM
S-nitroso-N-acetylpenicillamine [SNAP, reference compound]	–	–	–	–	–	–	–	–	–	–	NO Release ([3]; 100 μM compound, in water): 56.7 μΜ; NO Release ([3]; per 100 μM compound, DMSO/water 7/3): 56.3 μΜ
